In patent US12115174B2, “Dendrimer formulations” (AstraZeneca AB, priority 2018, dated 2024):

What was measured:
Assay type in all cases: in vivo
[1] = tested on: Cleaved poly ADP ribose polymerase (PARP); assay: Cleaved PARP response (cell death) after a single dose; conditions: Compound A in HP-β-CD formulation
Protocol: Cleaved poly ADP ribose polymerase (PARP) response was used as a measure of cell death.
Additionally, cell death (apoptosis) was measured using cleaved PARP (FIG. 4).

[2] = tested on: human acute lymphoblastic leukemia cells (RS4:11); assay: RS4:11 Acute Lymphoblastic Leukemia xenograft efficacy in SCID mice
Protocol: The efficacy evaluation of the vehicle (phosphate buffer saline), Compound A (formulated in 30% HP-β-CD, pH 4), Compound 1 in PBS (equivalent to 10 mg/kg Compound A) and Compound 2 in PBS (equivalent to 10 mg/kg and 30 mg/kg Compound A) is shown.
The efficacy evaluation of the vehicle (phosphate buffer saline, PBS), a formulation of Compound A in 30% HP-β-CD, Compound 1 in PBS (equivalent to 20 mg/kg Compound A) and Compound 2 in PBS (equivalent to 20 mg/kg Compound A) and is shown.
Preparation of Compounds 1 and 2 PBS formulations for dosing RS4:11 efficacy study: The appropriate amounts of Compound 1 and 2 were weighed into a volumetric flask. 10 mL Dulbecc's Phosphate Buffered Saline (PBS) was added and formulations were then stirred until the compound dissolved entirely.
The appropriate amount of Compound A was weighed into a 10 mL volumetric flask. 8 mL of 30% w/v HP-β-CD vehicle was then added and the formulation stirred. 1M MSA was added dropwise until the pH was reduced to about 2. The formulation was then stirred until the compound dissolved entirely. The pH was measured and adjusted to pH 4, dropwise using 1M MSA or NaOH. The formulation was then stirred to make sure a clear solution (with possible haze) was obtained. The volume was then made up to 10 mL with 30% w/v HP-β-CD vehicle and stirred. The final pH was measured and recorded and the formulation filtered through a […] filter prior to administration. Other formulation strengths were prepared by diluting the Compound A in 30% w/v HP-β-CD with an appropriate amount of 30% w/v HP-β-CD vehicle.
Efficacy of Compounds 1 and 2 in RS4:11 Xenograft Model: 5×10^6 RS4; 11 cells in a total volume of 100 μL were inoculated subcutaneously at the mouse right flank. […]
(§1) On specific day, for each treated group, calculate Inhibition value by formula: Inhibition %=(CG-TG)*100/(CG-1), in which “CG” means the geometric mean of rtv of the control group and “TG” means the Geometric Mean of Relative Tumor Volume (rtv) of the treated group. “CG” should use the corresponding control group of the treated group when calculated. […]

SuDHL-4 = SuDHL-4 xenograft model in SCID mice, alone and with rituximab
Protocol: Formulations of Compound 1 for SuDHL-4 efficacy study: Compound 1 was formulated in a pH 5 citrate/phosphate buffer diluted 1:10 with 5% glucose and containing 1% w/v Kolliphor HS-15, at concentrations up to 105 mg/mL of Compound 1 (equivalent to up to 30 mg/mL of Compound A concentration).
Formulations of Compound 2 for dosing in SuDHL-4 efficacy study: Compound 2 was formulated in a pH 4 citrate/phosphate buffer diluted 1:10 with 5% Glucose and containing 1% w/v Kolliphor HS-15, at concentrations up to 121 mg/mL of Compound 2 (equivalent of up to 30 mg/mL of Compound A concentration).
Compounds 1 and 2 enhance inhibition of tumor growth by rituximab in SuDHL-4 Xenograft Model in SCID Mice: The SuDHL-4 xenograft model was used to test the ability of Compounds 1 and 2 to enhance the activity of rituximab in inhibiting tumor growth. […]
Tumor sizes were measured 2 times a week and calculated as: Tumor Volume=(A×B^2)/2 where A and B are the tumor length and width (in mm), respectively.
as §1

Row | Compound | time of cleaved PARP induction post treatment [1] | % Inhibition Day (47) ([2]; Compound A 5 mg/kg) [%] | % Regression Day(47) ([2]; Compound A 5 mg/kg) [%] | regression ([2]; Compound A HP-β-CD 10 mg/kg IV once) [%] | T − C (SuDHL-4; rituximab 10 mg/kg alone) [days] | % Inhibition (TIC) Day(41) (SuDHL-4; rituximab 10 mg/kg i.p. once a week for 5 weeks) [%]
1 | CN(CCO)CC[C@H](CCSc1ccccc1)CNc1ccc(S(=O)(=O)NC(=O)c2ccc(N3CCC([C@@H](O)c4ccccc4-c4ccc(Cl)cc4)CC3)cc2)cc1S(=O)(=O)C(F)(F)F [Compound A, reference compound] | immediately post treatment 1 and 3 hr | >100 | 90 | 90 | – | –
2 | rituximab [reference compound] | – | – | – | – | >16 | 75.27
